Data from US6420367B1, “Pyrimidine derivatives exhibiting antitumor activity” (Shionogo & Co., Ltd., priority 1998, dated 2002).
≈ marks a conversion by molar mass, not a printed value.

Tests used:
[1] = test system: DT-R cells (pRRE3-luc-transfected v-ki-ras-transformed NIH3T3 cells); signal derived from Ras oncogene products; assay: Inhibitory effect against cellular signaling derived from Ras oncogene products: luciferase reporter, dissociation of DT-R from DT-C activity (MAC); format: cell-based, mouse; details: minimal tested concentration at which luciferase activities of DT-C cells and DT-R cells dissociated
Outline: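 Value is a minimal active concentration: lowest dose where Ras-responsive reporter (DT-R) luciferase diverges from SV40-minimal-promoter control (DT-C). Both transfected v-Ki-ras NIH3T3 lines received 3-fold serial dilutions for 24 h at 37 °C in 10% FCS medium before lysis and luminometry.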

[2] = test system: DT-C cells (pGV-P-transfected v-ki-ras-transformed NIH3T3 cells); assay: Luciferase activity in control DT-C cells (IC50-C): non-specific transcription-inhibitory effect or cytotoxicity; format: cell-based, mouse; details: tested concentration nearest to 50% inhibition in DT-C cells, index of non-specific transcription inhibition or cytotoxicity
Outline: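 Luciferase from an SV40 minimal promoter was read in DT-C cells (2500 cells/well) 24 h after compound addition at […] to 0.51 ng/ml in 3-fold steps. IC50-C is the tested concentration nearest 50% inhibition.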

[3] = test system: human lung cancer Ma44; assay: Evaluation of in vivo antitumor efficacy, tumor growth inhibition; set-up: species or system mouse; details: Ma44 in Balb/c nude mice; 30 mg/kg orally daily for 14 days; P<0.01
Text: (§1) Test Example 3 Evaluation of in Vivo Antitumor Efficacy
(§2) Murine colon cancer Colon 26, human lung cancer RERF-LC-AI and human lung cancer Ma44 were used. Murine- and human-derived tumor cells were maintained by serial transplantation in Balb/c and Balb/c nude mice, respectively. After tumor implantation, compound A-42 suspended in 5% methylcellulose solution were orally administered daily for 14 days. Tumor size (short diameter and long diameter) was scored throughout the experiment and tumor volume was calculated. Antitumor efficacy was evaluated as growth inhibition which was estimated by Treated/Control ratio and shown as % inhibition.

[4] = test system: Murine colon cancer Colon 26; assay: as above; set-up: species or system mouse; details: Colon 26 in Balb/c mice; 30 mg/kg orally daily for 14 days; P<0.01
Text: as §1, §2

[5] = test system: human squamous lung cancer RERF-RC-AI; assay: In vitro cell growth inhibition test, MTT assay; format: cell-based; details: MTT assay 4 days after compound addition
Outline: (§3)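 Panel of human carcinoma lines, including PANC-1, assessed in vitro; inhibition of cell growth quantified via MTT.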

[6] = test system: human squamous lung cancer Ma44; assay: In vitro cell growth inhibition test, MTT assay; format: cell-based; details: MTT assay 4 days after compound addition
Outline: as §3

[7] = test system: human colon cancer HT29; assay: In vitro cell growth inhibition test, MTT assay; format: cell-based; details: MTT assay 4 days after compound addition
Outline: as §3

[8] = test system: human lung cancer RERF-LC-AI; assay: Evaluation of in vivo antitumor efficacy, tumor growth inhibition; details: RERF-LC-AI in Balb/c nude mice; 30 mg/kg orally daily for 14 days; P<0.01
Text: as §1, §2

[9] = test system: human lung adenocarcinoma A549; assay: In vitro cell growth inhibition test, MTT assay; format: cell-based; details: MTT assay 4 days after compound addition
Outline: as §3

[10] = test system: human pancreas cancer PANC-1; assay: In vitro cell growth inhibition test, MTT assay; format: cell-based; details: MTT assay 4 days after compound addition
Outline: as §3

IC50, RERF-LC-AI [5] [µg/mL] | IC50, Ma44 [6] [µg/mL] | IC50, HT29 [7] [µg/mL] | IC50, A549 [9] [µg/mL] | IC50, PANC-1 [10] [µg/mL] | IC50 ([5]; Homo sapiens, 96 h, read-out: IC50, RERF-LC-AI) [µg/mL] | IC50 ([6]; Homo sapiens, 96 h) [µg/mL] | IC50 ([9]; Homo sapiens, A549, 96 h) [µg/mL] | IC50 ([7]; Homo sapiens, HT-29, 96 h) [µg/mL] | IC50 ([10]; Homo sapiens, PANC-1, 96 h) [µg/mL] | melting point [°C] | SMILES | MAC (Minimal Active Concentration) [1] [µg/mL] | IC50-C [2] [µg/mL] | Growth inhibition (Treated/Control ratio, shown as % inhibition) [3] [%] | Growth inhibition (Treated/Control ratio, shown as % inhibition) [4] [%] | Growth inhibition (Treated/Control ratio, shown as % inhibition) [8] [%] | IC50 ([2]; Mus musculus, NIH3T3) [µg/mL]
0.0083 (≈ 0.0201 µM) | 0.049 (≈ 0.119 µM) | 0.011 (≈ 0.0267 µM) | – | – | – | – | – | – | – | – | CCNC(=Nc1nc(C)ncc1CSc1nnc(-c2ccc(N)cc2)o1)NCC [Compound A-42] | 0.0137 | >10 | 66 | 70 | 74 | –
0.012 (≈ 0.0287 µM) | 0.036 (≈ 0.086 µM) | 0.03 (≈ 0.0717 µM) | 0.027 (≈ 0.0645 µM) | 0.013 (≈ 0.0311 µM) | – | – | – | – | – | – | CCNC(=Nc1nc(C)ncc1CSc1nnc(-c2ccsc2N)o1)NCC [Compound D-8] | 0.0412 | >10 | – | – | – | –
0.011 (≈ 0.0275 µM) | 0.024 (≈ 0.0601 µM) | 0.015 (≈ 0.0375 µM) | 0.028 (≈ 0.0701 µM) | 0.013 (≈ 0.0325 µM) | – | – | – | – | – | – | CCNC(=Nc1ncncc1CSc1nnc(-c2ccncc2N)o1)NCC [Compound D-37] | 0.123 | >10 | – | – | – | –
0.024 (≈ 0.0624 µM) | 0.055 (≈ 0.143 µM) | 0.04 (≈ 0.104 µM) | 0.07 (≈ 0.182 µM) | 0.049 (≈ 0.127 µM) | – | – | – | – | – | – | CCNC(=Nc1ncncc1CSc1nnc(-c2ccncc2)o1)NCC [Compound D-41] | 1.11 | >10 | – | – | – | –
– | – | – | – | – | 0.046 (≈ 0.103 µM) | 0.056 (≈ 0.126 µM) | 0.063 (≈ 0.141 µM) | 0.052 (≈ 0.117 µM) | 0.051 (≈ 0.114 µM) | 156 to 157 | CCN/C(=N\c1nc(C)ncc1CSc1nnc(-c2ccc([N+](=O)[O-])cc2)o1)SC [Compound G-1] | 0.370 | – | – | – | – | > 10
